Results as given in patent US20100297223A1, “PHARMACEUTICAL DOSAGE FORM COMPRISING A LIQUID OR FLOWABLE CORE COMPOSITION” (ABBOTT GMBH & CO. KG, priority 2007, published 2010).

How the values were obtained:
[1] = Water activity aw of capsule fill (Pawkit water activity meter); format: physicochemical; details: fill emptied from gelatine capsules size 00, 24 h after capsule preparation
Excerpt: Water activity aw is a measure of unbound free water in a system that is available to support chemical (or biological) reactions. It is defined as the vapour pressure of water divided by that of pure water at the same temperature. When a composition is in moisture equilibrium with its environment, its water activity is quantitatively equal to the relative humidity in head space of a container containing the composition, divided by 100. In particular during prolonged periods of storage, an excess of free water will migrate into the capsule shell and soften and eventually liquefy the capsule material. There are several factors that control water activity in a system. Dissolved species, e.g. salts, or sugars, interact with water through dipole-dipole, ionic, and hydrogen bonds. […] Water activity can be measured with commercially available equipment, such as the Pawkit water activity meter available from Decagon Devices, Inc. For the purposes herein, the water activity aw is suitably measured at a temperature of 25° C. […]
Twenty-four hours after the capsule preparation, the initial values of water activity and mechanical strength of the capsule shell were measured.
Capsules were stored for three months at 25° C., 60% relative humidity and 40° C., 75% relative humidity, respectively. Then, water activity and mechanical strength of the capsule shell were measured. […]

Miscibility with water = format: physicochemical

CC(CCN1CCCC1=O)N1CCCC1=O (centres unmarked) [1,3-bis-(pyrrolidon-1-yl)-butane]
aw (water activity), Initial [1]: 0.12
Miscibility with water (Miscibility with water): miscible with water in any ratio
